# Test results: patent publication US10782295B2, “Cysteine-reactive ligand discovery in proteomes” (THE SCRIPPS RESEARCH INSTITUTE, priority 2013, dated 2020)
# Columns and labels:
# [1] = tested on: cysteines in ZAK, EEF2, RTN4 and FN3KRP; assay: in situ competitive isoTOP-ABPP in MDA-MB-231 cells; format: cell-based, human; conditions: MDA-MB-231 cells treated with 50 or 100 μM HNE
# Protocol: By combining the R values at all 5 HNE concentrations, we could extrapolate IC50 values for […] of IA probe-labeling for ˜700 of the 1100 cysteines (FIG. 3a).
# After MDA-MB-231 cells were grown to 100% confluency, the media was removed and replaced with fresh serum-free media containing 100 μM HNE (20 μL of […] stock in 10 mL media). A control flask of cells was treated with 10 mL of serum-free media containing 20 uL of ethanol in parallel. The cells were incubated at 37° C. for 1 hour and harvested as detailed above to prepare HNE-treated and control proteomes, respectively. […]
# IA-probe labeled peptides were identified by SEQUEST2 and DTASelect3, and the quantification of heavy/light ratios (isoTOP-ABPP ratios, R) was performed by an in-house software (CIMAGE) as previously described. The software was advanced to be able to detect and quantify cases where near complete […] blockade of IA-probe labeling was achieved (e.g., very small or no light peak) and assign an empirical ratio cut-off of 15 to each of such cases. […] In the case of probe-modified peptides that were sequenced in one, but not the other runs, a featured algorithm of CIMAGE was utilized to identify the corresponding peak pairs in the runs without the SEQUEST identification and obtain quantification as previously described. […]
# JNK pathway activation = assay: Western blotting of phospho-JNK in WT-ZAK-transfected HEK-293T cells; format: cell-based, human
# Protocol: We next set out to assess the functional effects of HNE modification of ZAK in human cells. HEK-293T cells were stably transfected with cDNAs for WT-ZAK, C22A-ZAK, or K45M-ZAK and the activation state of their MAPK signaling pathways was monitored by western blotting with anti-phosphoprotein antibodies. […] We next treated cells with H2O2 (1 mM, 30 min) to induce oxidative stress, a process that is known to activate the JNK pathway^41,42. H2O2 treatment stimulated JNK activity in both WT- and C22A-ZAK-transfected cells (but not K45M-ZAK-transfected cells), with WT-ZAK cells showing the greater level of activation (FIG. 5b,c). […] We interpret these findings to indicate the existence of both ZAK-dependent and ZAK-independent pathways for HNE modulation of JNK activation (FIG. 5d). By modifying C22 on ZAK, HNE blocks the contribution that this kinase makes to the activation of the JNK pathway. […]
# Mouse and rabbit monoclonal antibodies against phospho-ERK 1/2 (Thr202/Tyr204), phosphor-SAPK/JNK (Thr183/[…]), phosphor-p38 MAPK (Thr180/[…]) and total ERK 1/2, SAPK/JNK and p38 MAPK were purchased from Cell Signaling Technology. […] Protein band intensities were quantified by ImageJ8 and ratios of phosphor-MAPK over total MAPK were computed. […]
structure (smiles),measurement,setting,value
"CCCCCC(O)/C=C/C=O (stereo not drawn) [4-HNE, 4-Hydroxynonenal]",inhibition of the most HNE-sensitive cysteines in situ,[1],strongly inhibited
same,"JNK activation by HNE alone, WT-ZAK-transfected cells","JNK pathway activation; 50 or 100 μM, 60 min",mostly unaffected
same,"H2O2-dependent JNK activation, WT-ZAK cells","JNK pathway activation; pre-treatment 100 μM, 30 min, then H2O2 1 mM, 30 min",blocking H2O2-dependent JNK activation
